Assay results: patent publication US10725042B2, “Methods of diagnosing and treating cancer” (Case Western Reserve University, priority 2012, dated 2020)

How the values were obtained:
H1975 66 shUNG tumors = test: H1975 66 shUNG xenografts in NOD-SCID mice; format: in vivo
Experimental: (§1) Tumor cells in early passage (5×10^6) were injected into bilateral flanks of female NODSCID mice (6 weeks old). When tumor volumes reached 100 mm3, mice were divided into control (n=4) and treatment (n=6) groups. Mice bearing tumors were treated with pemetrexed (150 mg/kg) or 100 μl sterile PBS (control) by daily intraperitoneal injection (IP) for 5 consecutive days. Tumor measurements were taken every 2 days and response was quantified by tumor volume.

DLD1/UDG−/− cells = test: Cell cycle analysis, UDG−/− cells; format: cell-based, human; settings: pemetrexed 25 nM
Experimental: For cell cycle analysis, 10^6 cells (DLD1/UDG^+/+ and DLD1/UDG^−/−) were plated in 100-mm tissue culture dishes and exposed to pemetrexed (25 nM). After 6, 24 and 72 h of culture, cells were fixed with 80% methanol and washed with ice-cold 1% BSA/PBS. DNA was stained with 20 μg/mL propidium iodide (Sigma-Aldrich) and 2.5 μg/mL of DNase-free RNase A (Roche). The DNA fluorescence of propidium iodide-stained cells was measured with an Elite ESP flow cytometer/cell sorter (Coulter, Miami, Fla.).

[1] = treatment of lung cancer; cited from earlier work
H460 xenografts = test: H460 xenograft tumors in nude mice; format: in vivo; settings: pemetrexed 150 mg/kg, MX 4 mg/kg, i.p. daily for 5 days
Experimental: H460 or A549 tumor cells (5×10^6) were injected into bilateral flanks of female athymic NCr (nu/nu) mice (6 weeks old). When the tumor volumes reached 100-150 mm3, mice were divided into control and treatment groups (6-9 mice/group). Nude mice carrying tumors were treated with pemetrexed (150 mg/kg) alone, MX (4 mg/kg) alone or the combination of the two agents, by daily intraperitonial injection (i.p.) for 5 consecutive days. Tumor measurements were taken every 2 days. Tumor responses were quantified by tumor volume.

H1975 wt tumors = test: H1975 wt xenografts in NOD-SCID mice; format: in vivo
Experimental: as §1

[2] = test system: uracil in DNA of UDG−/− cells; test: Uracil in DNA by HPLC/MS/MS, UDG−/− cells; format: cell-based, human
Experimental: UDG^−/− and UDG^+/+ cells were exposed to pemetrexed (10 μM) or 5-fluorouracil (10 μM) for 6, 24, 48 and 72 hrs. At indicated time points, cells were harvested and genomic DNA was extracted by phenol/chloroform. Forty μg of DNA were incubated with 10 U of purified UDG (New England Biolabs) in 60 μL of reaction buffer at 37° C. for 2 hrs. The reaction products were dried at 35° C. in a Turbovap under a stream of nitrogen and reconstituted in 150 μL 90% acetonitrile. The analyte was retained by an Atlantis Hilis Silica analytical column (2.1×100 mm, 3.5 μM) and eluted isocratically by a mixture of 90% acetonitrile and 10% 2.0 mM ammonium formate at a flow rate of 0.2 ml/min. The detection was done by an API 3200 MS/MS mass spectrometer.

UDG−/− cells = test: Replication foci stained with CldU and IdU, UDG−/− cells; format: cell-based, human; settings: pemetrexed 25 nM, n=10 cells
Experimental: DNA replication sites were visualized by incorporation of chlorodeoxyuridine (CldU) and iododeoxyuridine (IdU) into DNA. UDG^−/− and UDG^+/+ cells were labeled with 100 μM CldU (ICN, Irvine, Calif.) or IdU (Sigma Chemical Co., St. Louis, Mo.) for 45 min at different time intervals. Cells were washed with PBS, fixed with cold 70% ethanol, and stored at 4° C. For antibody staining, the ethanol was removed, and 100% methanol was added for 5 min. Cells were washed twice with PBS and incubated with 1.5 M HCl for 30 min to denature the DNA. Cells were washed with PBS, permeabilized with 0.5% Tween 20 in PBS for 5 min, and then incubated in 5% BSA (Sigma Chemical Co.) and in PBS for 20 min to reduce nonspecific binding. Primary antibodies CldU (rat anti-BrdU; Accurate Chemical and Science Co., Westbury, N.Y.) and IdU (mouse anti-BrdU; BD Biosciences) were diluted in 1% BSA buffer, added to the slides, and incubated in a humid environment for 2 hrs. Slides were washed with PBS-Tween 20 and then in a high-salt buffer (200 mM NaCl, 0.2% Tween 20, and 0.2% NP-40 in PBS) for 15 min. The samples were incubated with secondary antibodies for 1 h. Finally, slides were washed with PBSTween 20, mounted with Vectashield antifade mounting medium (Vector Laboratories, Inc., Burlingame, Calif.), and stored at 4° C. […] Fluorescence density of CldU or IdU was quantified by NIH image J software.

DLD1 UDG+/+ cells = test: Colony survival (clonogenic) assay, UDG+/+ cells; format: cell-based; settings: Homo sapiens, DLD-1, interpolated from dose-response survival curves, read-out: IC50 value for pemetrexed
Experimental: Tumor cells (500-2000/dish) were plated and treated with pemetrexed (0-400 nM), 5-fluorouracil (0-20 μM), temozolomide (0-1500 μM), or cisplatin (0-40 μM). After 7 days, surviving colonies were stained with methylene blue for 30 min at room temperature and the colonies containing more than 50 cells were counted to generate survival curves.

H1975 66 shUNG cells = test: Colony survival assay, H1975 66 shUNG cells; format: cell-based, human
Experimental: For cells in suspension, colony survival was determined by crystal violet staining of colonies formed after 10-day exposure of 5×10^3 cells to pemetrexed in soft agar. For adherent cells, colony survival was determined by methylene blue staining of colonies formed after 10-day exposure of 100 cells to pemetrexed in 6-well culture dishes. Only colonies containing ≥50 cells were counted. Data points represent percent of colonies relative to untreated control averaged over 3 experiments.
UNG directed shRNA and siRNA plasmids were purchased from Origene. Transfection was carried out according to manufacturer specifications. Stably transfected clones (shRNA) were selected with puromycin with subsequent expansion of a well-isolated colony of cells.

Question: Which “tumors smaller than untreated controls” value (H1975 66 shUNG tumors; H1975 66 shUNG tumors, day 20, pemetrexed 150 mg/kg IP x5) does the source give for `Nc1nc2[nH]cc(CCc3ccc(C(=O)N[C@@H](CCC(=O)O)C(=O)O)cc3)c2c(=O)[nH]1` [pemetrexed] here?
Answer: 55.6%

Question: What about the tumor quadrupling time (H1975 66 shUNG tumors; H1975 shUNG tumors, pemetrexed 150 mg/kg IP, 5 daily injections) of the same molecule?
Answer: 13.67 ± 0.28 days

Question: And the “cells arrested in S-phase” value (DLD1/UDG−/− cells; 6 hr)?
Answer: ~25%

Question: And the “cells arrested in S-phase” value (DLD1/UDG−/− cells; 24 hr)?
Answer: 36%

Question: What about the “cells in S-phase” value (DLD1/UDG−/− cells; 72 hr) of the same molecule?
Answer: 35%

Question: What about the “cells undergone apoptosis (subG1)” value (DLD1/UDG−/− cells; 72 hr) of the same molecule?
Answer: ~22%

Question: And the response rate [1]?
Answer: 30-40%

Question: What about the antitumour activity (H460 xenografts; H460 tumours) of the same molecule?
Answer: moderately sensitive

Question: And the mean tumour volume (H460 xenografts; H460 xenografts at 15 days, PBS control 2100±106)?
Answer: 1726±176 mm3

Question: What about the “tumors smaller than untreated controls” value (H1975 wt tumors; H1975 wild type tumors, day 20, pemetrexed 150 mg/kg IP x5) of the same molecule?
Answer: 37.8%

Question: What about the tumor quadrupling time (H1975 wt tumors; H1975 wt tumors, pemetrexed 150 mg/kg IP, 5 daily injections) of the same molecule?
Answer: 9.68 ± 0.31 days

Question: What about the “uracil detected in DNA” value ([2]; UDG−/− cells, drug 10 μM, 6-72 hr) of the same molecule?
Answer: significant amount of uracil

Question: And the “uracil accumulation compared to UNG+/+ controls” value ([2]; UNG−/− human cancer cells exposed to pemetrexed)?
Answer: up to 40 fold

Question: What about the “ratio of IdU to CldU (fluorescence density)” value (UDG−/− cells; 6-hr sample) of the same molecule?
Answer: 0.1±0.04

Question: And the “ratio of IdU to CldU (fluorescence density)” value (UDG−/− cells; 18-hr sample)?
Answer: 0.01±0.005

Question: And the IC50 (DLD1 UDG+/+ cells)?
Answer: 210 nM

Question: What about the “sensitivity of shRNA targeted H1975 clones compared to parental cells” value (H1975 66 shUNG cells; H1975 shUNG clones vs parental) of the same molecule?
Answer: > 5 fold

Question: And the IC50 (H1975 66 shUNG cells; Homo sapiens, NCI-H1975, H1975 66 shUNG, colony survival, read-out: pemetrexed IC50)?
Answer: 131 nM
